This note sets out measurements from patent US12570666B2, “Furoindazole derivatives” (Bayer Aktiengesellschaft, priority 2019, dated 2026).

Each structure is given as a SMILES string.

The target in the assay is T1, human GPR84 receptor (Homo sapiens, UniProt Q9NQS5).
T1 construct: frozen aliquots prepared by acCELLerate; host or cells: CHO-K1
The assay can be described thus: cAMP HTRF assay for identification of cellular GPR84 antagonists. The class given is cell-based. The note with it: CHO-K1 cells stably expressing human GPR84; Forskolin + agonist 6-OAU (EC80); average or median values. In outline: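 Forskolin-stimulated CHO-K1 cells stably expressing human GPR84, agonist-suppressed cAMP measured by HTRF (665/620 ratio) after lysis. Compounds at 11 concentrations, 20 μM to 0.07 nM, duplicate; normalized to DMSO and no-agonist controls; IC50 by 4-parameter fit.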

In general, IC50 refers to the concentration needed to halve the response being measured.

T1 sequence (Q9NQS5 whole entry): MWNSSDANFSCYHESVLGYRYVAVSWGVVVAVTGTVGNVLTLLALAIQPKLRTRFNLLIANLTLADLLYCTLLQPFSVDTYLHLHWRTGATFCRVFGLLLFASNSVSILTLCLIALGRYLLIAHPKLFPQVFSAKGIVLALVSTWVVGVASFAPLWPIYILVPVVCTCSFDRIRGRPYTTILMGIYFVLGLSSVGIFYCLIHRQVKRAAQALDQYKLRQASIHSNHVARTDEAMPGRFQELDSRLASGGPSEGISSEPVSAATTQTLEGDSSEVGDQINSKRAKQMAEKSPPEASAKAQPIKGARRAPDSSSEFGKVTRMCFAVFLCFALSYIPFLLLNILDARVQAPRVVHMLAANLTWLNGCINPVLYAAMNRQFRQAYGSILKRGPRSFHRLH

`Cc1c(C(=O)NCCN2CCN(c3ccc(C(F)(F)F)cn3)CC2)oc2c1-c1nn(Cc3ccccn3)cc1CC2` [Example 12, 8-methyl-2-(pyridin-2-ylmethyl)-N-(2-{4-[5-(trifluoromethyl)pyridin-2-yl]piperazin-1-yl}ethyl)-4,5-dihydro-2H-furo[2,3-g]indazole-7-carboxamide]: the IC50 was determined as 2760 nM.

In the case of `Cc1c(C(=O)NCC2CN(C)CCO2)oc2c1-c1nn(Cc3ccccn3)cc1CC2` (single isomer, unassigned) [Example 38-2], the IC50 is 3520 nM.

In the case of `O=C(NCc1ncco1)c1oc2c(c1C(F)(F)F)-c1nn(Cc3ccccn3)cc1C1(CCC1)C2` [Example 275, N-(1,3-Oxazol-2-ylmethyl)-2′-(pyridin-2-ylmethyl)-8′-(trifluormethyl)-2′,5′-dihydrospiro[cyclobutan-1,4′-furo[2,3-g]indazol]-7′-carboxamide], the IC50 turned out to be 141 nM.

As for `Cc1c(C(=O)NC[C@@H]2CCCO2)oc2c1-c1nn(CC3CCCCO3)cc1CC2` (mixture of isomers) [Example 190], the IC50 came to 238 nM.

As for `C[C@@H]1Cc2oc(C(=O)NCc3cnc(C(F)(F)F)nc3)c(C(F)(F)F)c2-c2nn(C[C@H]3COCCO3)cc21` (single isomer, unassigned) [Example 262, (4R or 4S)-2-{[(2S)-1,4-dioxan-2-yl]methyl}-4-methyl-8-(trifluoromethyl)-N-{[2-(trifluoromethyl)pyrimidin-5-yl]methyl}-4,5-dihydro-2H-furo[2,3-g]indazole-7-carboxamide], the IC50 is 195 nM.

Turning to `Cc1c(C(=O)NC[C@@H]2CCCO2)oc2c1-c1nn(CC3CNC3)cc1CC2` [Example 158, 2-(azetidin-3-ylmethyl)-8-methyl-N-[(2S)-tetrahydrofuran-2-ylmethyl]-4,5-dihydro-2H-furo[2,3-g]indazole-7-carboxamide], the IC50 stood at 1550 nM.

As for `Cc1c(C(=O)Nc2cccnc2)oc2c1-c1nn(Cc3ccccn3)cc1CC2` [Example 41, 8-methyl-N-(pyridin-3-yl)-2-(pyridin-2-ylmethyl)-4,5-dihydro-2H-furo[2,3-g]indazole-7-carboxamide], the IC50 is 5420 nM.

Regarding `Cc1c(C(=O)NCC2COC2)oc2c1-c1nn(Cc3ccccn3)cc1CC2` [Example 36, 8-methyl-N-(oxetan-3-ylmethyl)-2-(pyridin-2-ylmethyl)-4,5-dihydro-2H-furo[2,3-g]indazole-7-carboxamide], the IC50 came to 1720 nM.

Turning to `Cc1c(C(=O)NCc2ccccn2)oc2c1-c1nn(Cc3ccccn3)cc1CC2` [Example 21, 8-methyl-N,2-bis(pyridin-2-ylmethyl)-4,5-dihydro-2H-furo[2,3-g]indazole-7-carboxamide], the IC50 turned out to be 300 nM.

Take `Cc1c(C(=O)NC[C@@H]2CCCO2)oc2c1-c1nn(CC3(F)COC3)cc1CC2` [Example 95, 2-[(3-fluorooxetan-3-yl)methyl]-8-methyl-N-[(2S)-tetrahydrofuran-2-ylmethyl]-4,5-dihydro-2H-furo[2,3-g]indazole-7-carboxamide]: the IC50 is 31 nM.

Turning to `Cc1ccc(CNC(=O)c2oc3c(c2C)-c2nn(CC4COc5ncccc5O4)cc2CC3)cc1` (centres unmarked) [Example 53], the IC50 was 32 nM.

With `Cc1c(C(=O)NC[C@H]2COCCO2)oc2c1-c1nn(CC3CC3)cc1C1(CC1)C2` [Example 130, 2′-(cyclopropylmethyl)-N-[(2S)-1,4-dioxan-2-ylmethyl]-8′-methyl-2′,5′-dihydrospiro[cyclopropane-1,4′-furo[2,3-g]indazole]-7′-carboxamide], the IC50 is 1290 nM.

With `Cc1c(C(=O)NC[C@@H]2COCCO2)oc2c1-c1nn(CC3CNC3)cc1CC2` [Example 159, 2-(azetidin-3-ylmethyl)-N-[(2R)-1,4-dioxan-2-ylmethyl]-8-methyl-4,5-dihydro-2H-furo[2,3-g]indazole-7-carboxamide], the half-inhibitory concentration (IC50) worked out at 1960 nM.

`Cc1cccc(Cn2cc3c(n2)-c2c(oc(C(=O)NCC4CCCO4)c2C)CC3)n1` (racemic) [Example 66, 8-methyl-2-[(6-methylpyridin-2-yl)methyl]-N-[(2R/S)-tetrahydrofuran-2-ylmethyl]-4,5-dihydro-2H-furo[2,3-g]indazole-7-carboxamide]: the IC50 amounted to 160 nM.

With `Cc1c(C(=O)NC[C@@H]2CCCO2)oc2c1-c1nn(Cc3cccc(C(F)(F)F)n3)cc1CC2` [Example 56, 8-methyl-N-[(2S)-tetrahydrofuran-2-ylmethyl]-2-{[6-(trifluoromethyl)pyridin-2-yl]methyl}-4,5-dihydro-2H-furo[2,3-g]indazole-7-carboxamide], the IC50 was 92 nM.

On to `O=C(NC[C@@H]1COCCO1)c1oc2c(c1C(F)(F)F)-c1nn(CC3CCN(C(=O)C4CC4)CC3)cc1CC2` [Example 285, 2-{[1-(cyclopropanecarbonyl)piperidin-4-yl]methyl}-N-{[(2R)-1,4-dioxan-2-yl]methyl}-8-(trifluoromethyl)-4,5-dihydro-2H-furo[2,3-g]indazole-7-carboxamide], for which the half-maximal inhibitory concentration (IC50) worked out at 21 nM.

Take `Cc1c(C(=O)NCc2ncco2)oc2c1-c1nn(Cc3ccccn3)cc1CC2` [Example 32, 8-methyl-N-(1,3-oxazol-2-ylmethyl)-2-(pyridin-2-ylmethyl)-4,5-dihydro-2H-furo[2,3-g]indazole-7-carboxamide]: the concentration for half-maximal inhibition (IC50) stood at 150 nM.

In the case of `O=C(NC[C@@H]1COCCO1)c1oc2c(c1C(F)(F)F)-c1nn(C[C@H]3COCCO3)cc1CC2` [Example 320, N-{[(2R)-1,4-dioxan-2-yl]methyl}-2-{[(2S)-1,4-dioxan-2-yl]methyl}-8-(trifluoromethyl)-4,5-dihydro-2H-furo[2,3-g]indazole-7-carboxamide], the IC50 turned out to be 12 nM.

As to `O=C(NC[C@@H]1CCCO1)c1oc2c(c1C1CC1)-c1nn(Cc3ccccn3)cc1CC2` [Example 119, 8-cyclopropyl-2-(pyridin-2-ylmethyl)-N-[(2S)-tetrahydrofuran-2-ylmethyl]-4,5-dihydro-2H-furo[2,3-g]indazole-7-carboxamide], the IC50 was 28 nM.

For the compound `Cc1c(C(=O)NC[C@H]2COCCO2)oc2c1-c1nn(Cc3ccccn3)cc1C1(CCC1)C2` [Example 133], the IC50 amounted to 940 nM.

For `Cc1c(C(=O)NCC2CCCO2)oc2c1-c1nn(CC3COc4ncccc4O3)cc1CC2` (single isomer, unassigned) [Example 52-2], the IC50 came out at 16 nM.

As for `O=C(NC[C@@H]1COCCO1)c1oc2c(c1C(F)(F)F)-c1nn(CC3CCOCC3)cc1CC2` [Example 242, N-{[(2R)-1,4-dioxan-2-yl]methyl}-2-[(oxan-4-yl)methyl]-8-(trifluoromethyl)-4,5-dihydro-2H-furo[2,3-g]indazole-7-carboxamide], the IC50 amounted to 29 nM.

On to `CC1CCC(CNC(=O)c2oc3c(c2C(F)(F)F)-c2nn(CC4COCCO4)cc2CC3)O1` (single isomer, unassigned) [Example 224-2, 2-{[(2S)-1,4-dioxan-2-yl]methyl}-N-{[(2S or 2R,5S or 5R)-5-methyloxolan-2-yl]methyl}-8-(trifluoromethyl)-4,5-dihydro-2H-furo[2,3-g]indazole-7-carboxamide], for which the half-maximal inhibitory concentration (IC50) worked out at 154 nM.

Consider `Cc1c(C(=O)NCc2ncco2)oc2c1-c1nn(Cc3ccccn3)cc1C1(CC1)C2` [Example 124, 8′-methyl-N-(1,3-oxazol-2-ylmethyl)-2′-(pyridin-2-ylmethyl)-2′,5′-dihydrospiro[cyclopropane-1,4′-furo[2,3-g]indazole]-7′-carboxamide], for which the IC50 was 180 nM.

In the case of `O=C(NCc1cocn1)c1oc2c(c1C(F)(F)F)-c1nn(C[C@H]3COCCO3)cc1CC2` [Example 239, 2-[(2S)-1,4-Dioxan-2-ylmethyl]-N-(1,3-oxazol-4-ylmethyl)-8-(trifluormethyl)-4,5-dihydro-2H-furo[2,3-g]indazol-7-carboxamide], the 50% inhibitory concentration (IC50) turned out to be 136 nM.

Regarding `CN1CCC(Cn2cc3c(n2)-c2c(oc(C(=O)NC[C@@H]4CCCO4)c2C(F)(F)F)CC3)CC1` [Example 308, 2-[(1-methylpiperidin-4-yl)methyl]-N-{[(2S)-oxolan-2-yl]methyl}-8-(trifluoromethyl)-4,5-dihydro-2H-furo[2,3-g]indazole-7-carboxamide], the IC50 came to 151 nM.

For the compound `Cc1c(C(=O)NC[C@@H]2CCCO2)oc2c1-c1nn(Cc3ncc(F)cc3Cl)cc1CC2` [Example 58, 2-[(3-chloro-5-fluoropyridin-2-yl)methyl]-8-methyl-N-[(2S)-tetrahydrofuran-2-ylmethyl]-4,5-dihydro-2H-furo[2,3-g]indazole-7-carboxamide], the IC50 was 240 nM.

As for `CC(=O)N1CCC(Cn2cc3c(n2)-c2c(oc(C(=O)NC[C@@H]4COCCO4)c2C(F)(F)F)CC3)CC1` [Example 306], the half-maximal inhibitory concentration (IC50) is 27 nM.

Take `Cc1c(C(=O)NC[C@@H]2COCCO2)oc2c1-c1nn(Cc3ccc(C(=O)NC[C@@H]4COCCO4)nc3)cc1CC2` [Example 147, N-[(2R)-1,4-dioxan-2-ylmethyl]-2-[(6-{[(2R)-1,4-dioxan-2-ylmethyl]carbamoyl}pyridin-3-yl)methyl]-8-methyl-4,5-dihydro-2H-furo[2,3-g]indazole-7-carboxamide]: the IC50 came to 130 nM.

For the compound `Cc1c(C(=O)NCc2cc(C(F)(F)F)on2)oc2c1-c1nn(Cc3ccccn3)cc1CC2` [Example 25, 8-methyl-2-(pyridin-2-ylmethyl)-N-{[5-(trifluoromethyl)-1,2-oxazol-3-yl]methyl}-4,5-dihydro-2H-furo[2,3-g]indazole-7-carboxamide], the 50% inhibitory concentration (IC50) is 160 nM.

Take `Cc1cccc(Cn2cc3c(n2)-c2c(oc(C(=O)NCCN4CCC4)c2C)CC3)n1` [Example 67, N-[2-(azetidin-1-yl)ethyl]-8-methyl-2-[(6-methylpyridin-2-yl)methyl]-4,5-dihydro-2H-furo[2,3-g]indazole-7-carboxamide]: the half-inhibitory concentration (IC50) came out at 1810 nM.

Consider `Cc1c(C(=O)NC[C@@H]2COCCO2)oc2c1-c1nn(Cc3ncccn3)cc1CC2` [Example 84, N-[(2R)-1,4-dioxan-2-ylmethyl]-8-methyl-2-(pyrimidin-2-ylmethyl)-4,5-dihydro-2H-furo[2,3-g]indazole-7-carboxamide], for which the IC50 was 180 nM.
